Consider 49 compounds from patent publication US20070213359A1 (ACADIA Pharmaceuticals Inc., priority 2005, published 2007).

The target in the first test is Ghrelin receptor (Homo sapiens, UniProt Q92847). Briefly: Receptor Selection and Amplification Technology (R-SAT) assay. The format is cell-based. Also noted: expressed in transfected cells; host or cells: NIH3T3. Particulars: negative logarithm of ligand concentration causing 50% inhibition of constitutive receptor response; transfected NIH3T3 cells; '—' not defined (nd used separately); read-out: RSAT pIC50 (converted).
Chain of Ghrelin receptor (Q92847 whole entry): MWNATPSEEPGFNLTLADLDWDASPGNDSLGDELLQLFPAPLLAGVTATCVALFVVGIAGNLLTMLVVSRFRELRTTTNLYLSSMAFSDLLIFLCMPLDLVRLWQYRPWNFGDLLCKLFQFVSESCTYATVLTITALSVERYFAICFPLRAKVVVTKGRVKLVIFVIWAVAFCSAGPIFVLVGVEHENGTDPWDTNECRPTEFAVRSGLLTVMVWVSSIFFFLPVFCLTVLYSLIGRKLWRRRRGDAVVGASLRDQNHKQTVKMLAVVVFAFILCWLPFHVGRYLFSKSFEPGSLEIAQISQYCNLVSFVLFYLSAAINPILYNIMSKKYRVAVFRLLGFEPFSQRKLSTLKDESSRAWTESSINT
As for `CCc1cccc2c(C(C)=O)cn(CCCN3CCN(Cc4ccc(Cl)cc4Cl)CC3)c12`, the IC50 was 0.251 µM.

On to `CC(=O)c1cn(CCCN2CCC(Oc3ccccc3Cl)CC2)c2c(Cl)cccc12`, for which the IC50 was 0.251 µM.

For `CCCCC[C@H]1C[C@H]2CC[C@@H](C1)N2CCCn1cc(C(C)=O)c2cccc(C)c21`, the IC50 is 0.251 µM.

`CC(c1ccccc1)N1CCN(CCCn2cc(C(=O)C(F)(F)F)c3ccccc32)CC1` (centres unmarked): the IC50 was 0.251 µM.

Take `O=C(c1cn(CCCN2C3CCC2CC(Oc2ccc(Cl)cc2)C3)c2ccccc12)C(F)(F)F` (centres unmarked): the IC50 is 0.251 µM.

As for `CCCCC(=O)c1cn(CCCN2CCC(Oc3ccccc3Cl)CC2)c2ccc(OC)cc12`, the IC50 was 0.251 µM.

In the case of `CCCOC1CCN(CCCn2cc(C(C)=O)c3ccc(Br)cc32)CC1`, the IC50 is 0.251 µM.

As for `CC(=O)c1cn(CCCN2CCC(c3nc(-c4ccncc4)no3)CC2)c2c(Cl)cccc12`, the IC50 was 0.251 µM.

As for `CC(=O)c1cn(CCCN2CCCN(CCc3ccccc3)CC2)c2ncccc12`, the IC50 was 0.251 µM.

As for `CCC(=O)c1cn(CCCN2CCC(c3ccccc3OC)CC2)c2ccccc12`, the IC50 was 0.316 µM.

On to `CC(=O)c1cn(CCCN2CCC3(CC2)CC(=O)c2ccccc2O3)c2c(C)cccc12`, for which the IC50 is 0.316 µM.

Turning to `COc1cccc2c(C(C)=O)cn(CCCN3CCC4(CC3)C(=O)NCN4c3ccccc3)c12`, the IC50 is 0.316 µM.

On to `CC(C)CC(=O)c1cn(CCCN2CCC(Oc3ccc(Cl)cc3)CC2)c2ccccc12`, for which the IC50 is 0.316 µM.

As to `CCCCC(=O)c1cn(CCCN2CCC(c3ccccc3OC)CC2)c2ccc(OC)cc12`, the IC50 is 0.316 µM.

Take `CCC(=O)c1cn(CCCN2CCC(Oc3ccccc3Cl)CC2)c2ccccc12`: the IC50 was 0.316 µM.

Regarding `CCCCC1CCN(CCCn2cc(C(C)=O)c3cccc(Cl)c32)CC1`, the IC50 was 0.316 µM.

With `CC(=O)c1cn(CCCCN2CCC(c3nc4ccccc4s3)CC2)c2ccccc12`, the IC50 was 0.398 µM.

Turning to `CCCCC1CCN(CCCn2cc(C(=O)CC(C)C)c3ccccc32)CC1`, the IC50 is 0.398 µM.

As to `CCOC(=O)C1CCN(CCCn2cc(C(C)=O)c3cccc(OC)c32)CC1`, the IC50 is 0.398 µM.

Take `O=C(c1cn(CCCN2CCC(c3nc4ccccc4s3)CC2)c2ccccc12)C(F)(F)F`: the IC50 is 0.398 µM.

`CC(=O)c1c(C)n(CCCN2CCCN(Cc3ccc(F)cc3)CC2)c2c(Br)cccc12`: the IC50 is 0.398 µM.

With `COc1ccc2c(C(C)=O)cn(CCCN3CCC(Oc4ccc(Cl)cc4)CC3)c2c1`, the IC50 is 0.398 µM.

For the compound `CCCCC1CCN(CCCn2cc(C(C)=O)c3cc(OC)ccc32)CC1`, the IC50 is 0.398 µM.

Turning to `COc1cccc2c(C#N)cn(CCCN3CCN(c4ncc(C(F)(F)F)cc4Cl)CC3)c12`, the IC50 is 0.398 µM.

Turning to `CC(=O)c1cn(CC(C)CN2C3CCC2CC(OCC2CC2)C3)c2ccccc12` (centres unmarked), the IC50 was 0.398 µM.

Consider `CC(=O)c1cn(CCN2CCC(Cc3ccccc3)CC2)c2ccccc12`, for which the IC50 was 0.398 µM.

Consider `CC(=O)c1cn(CCCN2CCC(c3nc(-c4ccccc4)no3)CC2)c2c(Br)cccc12`, for which the IC50 is 0.501 µM.

On to `CC(=O)c1cn(CCCN2CCN(CCOc3ccccc3)CC2)c2c(Br)cccc12`, for which the IC50 is 0.501 µM.

Turning to `COc1ccc2c(c1)c(C(C)=O)cn2CCCN1CCC(Oc2ccc(Cl)cc2)CC1`, the IC50 was 0.501 µM.

With `COc1ccc2c(C(C)=O)cn(CCCN3C4CCC3CC(OC3=CC=C(Cl)CC3)C4)c2c1` (centres unmarked), the IC50 is 0.501 µM.

Take `CC(C)CNC(=O)c1cn(CCCN2CCC(Oc3ccc(F)cc3)CC2)c2ccccc12`: the IC50 is 0.501 µM.

For `O=C(c1cn(CCCN2C3CCC2CC(OCC2CC2)C3)c2ccccc12)C(F)(F)F` (centres unmarked), the IC50 was 0.501 µM.

Turning to `CC(=O)c1cn(CC(C)CN2CCC(Oc3ccc(F)cc3)CC2)c2ccccc12` (centres unmarked), the IC50 was 0.501 µM.

With `CCCCC1CCN(CCCn2cc(C(=O)C(F)(F)F)c3ccccc32)CC1`, the IC50 is 0.501 µM.

Regarding `COc1ccc2c(c1)c(C(C)=O)cn2CCCN1CCN(C(C)c2ccccc2)CC1` (centres unmarked), the IC50 is 0.501 µM.

In the case of `CC(=O)c1cn(CCCN2C3CCC2CC(OCC2CC2)C3)c2cc(Br)ccc12` (centres unmarked), the IC50 was 0.501 µM.

Take `COc1ccccc1C1CCN(CCCn2cc(C(C)=O)c3cccc(Cl)c32)CC1`: the IC50 is 0.501 µM.

With `CC(=O)c1cn(CCCN2C3CCC2CC(CC(=O)c2ccc(Cl)cc2)C3)c2c(Cl)cccc12` (centres unmarked), the IC50 was 0.501 µM.

Take `COc1cccc2c(C(C)=O)cn(CCCN3CCN(CC4CCCO4)CC3)c12` (centres unmarked): the IC50 was 0.631 µM.

Consider `CCCOC1CCN(CC(C)Cn2cc(C(C)=O)c3ccccc32)CC1` (centres unmarked), for which the IC50 is 0.631 µM.

`CC(=O)c1cn(CCCN2CCC(c3nc(-c4cccnc4)no3)CC2)c2c(Cl)cccc12`: the IC50 is 0.631 µM.

In the case of `O=C(c1ccccc1)C1CCN(CCCn2cc(C(=O)C(F)(F)F)c3ccccc32)CC1`, the IC50 is 0.631 µM.

For `COc1ccccc1C1CCN(CCCn2cc(C(=O)CC(C)C)c3ccccc32)CC1`, the IC50 was 0.631 µM.

On to `CCCCC1CCN(CCCn2cc(C(C)=O)c3ccc(OC)cc32)CC1`, for which the IC50 was 0.631 µM.

In the case of `COc1ccc2c(c1)c(C(C)=O)cn2CCCN1CCC(Oc2ccc(F)cc2)CC1`, the IC50 was 0.631 µM.

Regarding `CCCCC1CCN(CCCn2cc(CCC(C)=O)c3ccccc32)CC1`, the IC50 is 0.631 µM.

With `CC(=O)c1cn(CCCN2CCN(CCOc3ccccc3)CC2)c2ncccc12`, the IC50 was 0.631 µM.

For the compound `CC(=O)c1cn(CCCN2C3CCC2CC(Oc2ccccc2Cl)C3)c2c(C)cccc12` (centres unmarked), the IC50 was 0.794 µM.

As for `CCCCC(=O)c1cn(CCCN2CCC(C(=O)c3ccccc3)CC2)c2ccc(OC)cc12`, the IC50 is 0.794 µM.

Staying with this test, now noted: percent inhibition at saturating ligand, normalized to reference ligand Substance P analog = 100%; read-out: RSAT Eff(%).
Take `CCc1cccc2c(C(C)=O)cn(CCCN3CCN(Cc4ccc(Cl)cc4Cl)CC3)c12`: the Emax was 106%.

On to `CC(=O)c1cn(CCCN2CCC(Oc3ccccc3Cl)CC2)c2c(Cl)cccc12`, for which the Emax was determined as 97%.

As for `CCCCC[C@H]1C[C@H]2CC[C@@H](C1)N2CCCn1cc(C(C)=O)c2cccc(C)c21`, the Emax is 105%.

As for `CC(c1ccccc1)N1CCN(CCCn2cc(C(=O)C(F)(F)F)c3ccccc32)CC1` (centres unmarked), the Emax amounted to 92%.

Take `O=C(c1cn(CCCN2C3CCC2CC(Oc2ccc(Cl)cc2)C3)c2ccccc12)C(F)(F)F` (centres unmarked): the Emax is 97%.

For the compound `CCCCC(=O)c1cn(CCCN2CCC(Oc3ccccc3Cl)CC2)c2ccc(OC)cc12`, the Emax stood at 92%.

Take `CCCOC1CCN(CCCn2cc(C(C)=O)c3ccc(Br)cc32)CC1`: the Emax came out at 107%.

`CC(=O)c1cn(CCCN2CCC(c3nc(-c4ccncc4)no3)CC2)c2c(Cl)cccc12`: the Emax is 108%.

For `CC(=O)c1cn(CCCN2CCCN(CCc3ccccc3)CC2)c2ncccc12`, the Emax turned out to be 84%.

For the compound `CCC(=O)c1cn(CCCN2CCC(c3ccccc3OC)CC2)c2ccccc12`, the Emax amounted to 59%.

For `CC(=O)c1cn(CCCN2CCC3(CC2)CC(=O)c2ccccc2O3)c2c(C)cccc12`, the Emax was found to be 71%.

Consider `CC(C)CC(=O)c1cn(CCCN2CCC(Oc3ccc(Cl)cc3)CC2)c2ccccc12`, for which the Emax worked out at 112%.

With `CCCCC(=O)c1cn(CCCN2CCC(c3ccccc3OC)CC2)c2ccc(OC)cc12`, the Emax was found to be 101%.

With `CCC(=O)c1cn(CCCN2CCC(Oc3ccccc3Cl)CC2)c2ccccc12`, the Emax worked out at 76%.

Turning to `CCCCC1CCN(CCCn2cc(C(C)=O)c3cccc(Cl)c32)CC1`, the Emax turned out to be 80%.

As for `CC(=O)c1cn(CCCCN2CCC(c3nc4ccccc4s3)CC2)c2ccccc12`, the Emax amounted to 81%.

For `CCCCC1CCN(CCCn2cc(C(=O)CC(C)C)c3ccccc32)CC1`, the Emax is 85%.

On to `CCOC(=O)C1CCN(CCCn2cc(C(C)=O)c3cccc(OC)c32)CC1`, for which the Emax came to 127%.

For the compound `O=C(c1cn(CCCN2CCC(c3nc4ccccc4s3)CC2)c2ccccc12)C(F)(F)F`, the Emax worked out at 88%.

For `CC(=O)c1c(C)n(CCCN2CCCN(Cc3ccc(F)cc3)CC2)c2c(Br)cccc12`, the Emax was determined as 49%.

Consider `COc1ccc2c(C(C)=O)cn(CCCN3CCC(Oc4ccc(Cl)cc4)CC3)c2c1`, for which the Emax was 67%.

`CCCCC1CCN(CCCn2cc(C(C)=O)c3cc(OC)ccc32)CC1`: the Emax stood at 118%.

With `COc1cccc2c(C#N)cn(CCCN3CCN(c4ncc(C(F)(F)F)cc4Cl)CC3)c12`, the Emax amounted to 97%.

Regarding `CC(=O)c1cn(CC(C)CN2C3CCC2CC(OCC2CC2)C3)c2ccccc12` (centres unmarked), the Emax amounted to 65%.

Consider `CC(=O)c1cn(CCN2CCC(Cc3ccccc3)CC2)c2ccccc12`, for which the Emax worked out at 77%.

For `CC(=O)c1cn(CCCN2CCC(c3nc(-c4ccccc4)no3)CC2)c2c(Br)cccc12`, the Emax came out at 69%.

Regarding `CC(=O)c1cn(CCCN2CCN(CCOc3ccccc3)CC2)c2c(Br)cccc12`, the Emax was 91%.

For the compound `COc1ccc2c(c1)c(C(C)=O)cn2CCCN1CCC(Oc2ccc(Cl)cc2)CC1`, the Emax stood at 104%.

Consider `COc1ccc2c(C(C)=O)cn(CCCN3C4CCC3CC(OC3=CC=C(Cl)CC3)C4)c2c1` (centres unmarked), for which the Emax amounted to 108%.

Regarding `O=C(c1cn(CCCN2C3CCC2CC(OCC2CC2)C3)c2ccccc12)C(F)(F)F` (centres unmarked), the Emax came to 103%.

`CC(=O)c1cn(CC(C)CN2CCC(Oc3ccc(F)cc3)CC2)c2ccccc12` (centres unmarked): the Emax amounted to 98%.

For the compound `CCCCC1CCN(CCCn2cc(C(=O)C(F)(F)F)c3ccccc32)CC1`, the Emax stood at 74%.

Regarding `COc1ccc2c(c1)c(C(C)=O)cn2CCCN1CCN(C(C)c2ccccc2)CC1` (centres unmarked), the Emax came to 77%.

For `CC(=O)c1cn(CCCN2C3CCC2CC(OCC2CC2)C3)c2cc(Br)ccc12` (centres unmarked), the Emax was 130%.

As for `COc1ccccc1C1CCN(CCCn2cc(C(C)=O)c3cccc(Cl)c32)CC1`, the Emax amounted to 103%.

For the compound `CC(=O)c1cn(CCCN2C3CCC2CC(CC(=O)c2ccc(Cl)cc2)C3)c2c(Cl)cccc12` (centres unmarked), the Emax was 41%.

With `COc1cccc2c(C(C)=O)cn(CCCN3CCN(CC4CCCO4)CC3)c12` (centres unmarked), the Emax came to 98%.

As to `CCCOC1CCN(CC(C)Cn2cc(C(C)=O)c3ccccc32)CC1` (centres unmarked), the Emax stood at 74%.

`CC(=O)c1cn(CCCN2CCC(c3nc(-c4cccnc4)no3)CC2)c2c(Cl)cccc12`: the Emax was determined as 101%.

As to `O=C(c1ccccc1)C1CCN(CCCn2cc(C(=O)C(F)(F)F)c3ccccc32)CC1`, the Emax came out at 63%.

Consider `COc1ccccc1C1CCN(CCCn2cc(C(=O)CC(C)C)c3ccccc32)CC1`, for which the Emax amounted to 100%.

For the compound `CCCCC1CCN(CCCn2cc(C(C)=O)c3ccc(OC)cc32)CC1`, the Emax is 63%.

With `COc1ccc2c(c1)c(C(C)=O)cn2CCCN1CCC(Oc2ccc(F)cc2)CC1`, the Emax came to 58%.

Consider `CCCCC1CCN(CCCn2cc(CCC(C)=O)c3ccccc32)CC1`, for which the Emax is 76%.

Take `CC(=O)c1cn(CCCN2CCN(CCOc3ccccc3)CC2)c2ncccc12`: the Emax was 81%.

Regarding `CC(=O)c1cn(CCCN2C3CCC2CC(Oc2ccccc2Cl)C3)c2c(C)cccc12` (centres unmarked), the Emax stood at 101%.

The same test, now with this note: read-out: RSAT Eff(%).
Regarding `COc1cccc2c(C(C)=O)cn(CCCN3CCC4(CC3)C(=O)NCN4c3ccccc3)c12`, the Emax turned out to be 38%.

With `CC(C)CNC(=O)c1cn(CCCN2CCC(Oc3ccc(F)cc3)CC2)c2ccccc12`, the Emax stood at 94%.

Consider `CCCCC(=O)c1cn(CCCN2CCC(C(=O)c3ccccc3)CC2)c2ccc(OC)cc12`, for which the Emax stood at 98%.
